Assay results taken from BindingDB's records for doi:10.1021/jm00032a001 (Warner-Lambert, 1994).

Tests used:
[1] = Tested for inhibition of ICAM expression by ELISA at the dose of 30 uM
[2] = Tested for inhibition of E-selection expression by ELISA at the dose of 30 uM
[3] = Tested for inhibition of ICAM expression by ELISA at the dose of 30 uM; remark: listed apart in the source
[4] = Tested for inhibition of E-selectin expression by ELISA at the dose of 30 uM

SMILES	IC50 [1] [µM]	IC50 [2] [µM]	IC50 [3] [µM]	IC50 [4] [nM]
COc1ccc2c(c1)c(OC(C)C)c(C(N)=O)[s+]2[O-] (stereo unspecified) [3-Isopropoxy-5-methoxy-1-oxo-benzo[b]thiophene-2-carboxylic acid amide]	4	6.6	–	–
CNC(=O)c1sc2ccc(OC)cc2c1OC(C)C [3-Isopropoxy-5-methoxy-benzo[b]thiophene-2-carboxylic acid methylamide]	–	–	6.6	1400
CC(C)Oc1c(C(N)=O)sc2ccc(O)cc12 [5-Hydroxy-3-isopropoxy-benzo[b]thiophene-2-carboxylic acid amide]	–	–	3.5	3300
